Values belong to the molecule of their own block, whether it stands above or below them.
Columns and labels:
[1] = target: T1, Human immunodeficiency virus type 1 reverse transcriptase (Human immunodeficiency virus 1, UniProt Q72547); experiment: Tested for its ability to inhibit HIV-1 reverse transcriptase strand transfer using A17 double mutant HIV-1-RT enzyme
[2] = target: T1, Human immunodeficiency virus type 1 reverse transcriptase; experiment: Inhibition of HIV-1 reverse transcriptase polymerization using wild type HIV-1-RT enzyme
[3] = target: T1, Human immunodeficiency virus type 1 reverse transcriptase; experiment: Tested for its ability to inhibit HIV-1 reverse transcriptase polymerization using A17 double mutant HIV-1-RT enzyme
[4] = target: T1, Human immunodeficiency virus type 1 reverse transcriptase; experiment: Tested for its ability to inhibit HIV-1 reverse transcriptase strand transfer using wild type HIV-1-RT enzyme

SMILES: COc1cc(OC)c2c(c1)OCC(OC(=O)c1cc(O)c(O)c(O)c1)C2 (centres undefined)
IC50 [1]: 6.9 µM | IC50 [2]: 72.8 µM | IC50 [3]: > 100 µM | IC50 [4]: 0.9 µM

SMILES: O=C(OC1COc2cc(O)cc(O)c2C1)c1ccc(O)c(O)c1 (centres undefined)
IC50 [1]: > 100 µM | IC50 [2]: 37.2 µM | IC50 [3]: > 100 µM | IC50 [4]: > 100 µM

IC50 [2]: 72.9 µM | IC50 [4]: 6.9 µM
SMILES: O=C(OCCc1ccccc1)c1cc(O)c(O)c(O)c1

IC50 [2]: 96.3 µM
SMILES: O=C(OC1COc2cc(O)cc(O)c2C1)c1cc(O)cc(O)c1 (centres undefined)

IC50 [2]: 7.9 µM | IC50 [4]: 4.5 µM
SMILES: O=C(OCCc1ccc(O)cc1)c1cc(O)c(O)c(O)c1

SMILES: O=C(OC1COc2cc(O)cc(O)c2C1)c1ccccc1 (centres undefined)
IC50 [1]: > 100 µM | IC50 [2]: > 100 µM | IC50 [3]: > 100 µM | IC50 [4]: > 100 µM

SMILES: O=C(OC1COc2cc(O)cc(O)c2C1)c1cc(O)c(O)c(O)c1 (centres undefined)
IC50 [1]: 5.5 µM | IC50 [2]: 3.8 µM | IC50 [4]: 6.2 µM

SMILES: O=C(OCCc1ccc(O)c(O)c1)c1cc(O)c(O)c(O)c1
IC50 [1]: 10.5 µM | IC50 [2]: 10.7 µM | IC50 [3]: 6.3 µM | IC50 [4]: 0.6 µM

SMILES: O=C(OC1COc2cccc(O)c2C1)c1cc(O)c(O)c(O)c1 (centres undefined)
IC50 [2]: 45.5 µM | IC50 [3]: 64.7 µM | IC50 [4]: 8.7 µM

SMILES: O=C(OC1COc2cc(O)ccc2C1)c1cc(O)c(O)c(O)c1 (centres undefined)
IC50 [2]: 36.3 µM | IC50 [3]: 30.8 µM | IC50 [4]: 7.6 µM

SMILES: O=C(OC1COc2ccccc2C1)c1cc(O)c(O)c(O)c1 (centres undefined)
IC50 [1]: 2.6 µM | IC50 [2]: > 100 µM | IC50 [3]: > 100 µM | IC50 [4]: 6.1 µM
